Reference: patent US20160022724A1, “METHODS FOR TREATING PARAMYXOVIRUSES” (Alios BioPharma, Inc., priority 2014, published 2016)

Assays:
[1] = half life of the triphosphate compound (B); conditions: triphosphate formed inside the cell
Text: The compounds (A) and (B), or a pharmaceutically acceptable salt of the foregoing, are described in U.S. Publication Nos. 2013/0165400 and 2015/0051167 and International Publication Nos. WO 2013/142525 and WO 2013/142525, all of which are hereby incorporated by reference in their entireties. Those skilled in the art understand that once compound (A), or a pharmaceutically acceptable salt thereof, is absorbed, the groups attached to 3′ and 5′ positions can be easily removed by esterases, proteases and/or other enzymes. Once inside the cell, the triphosphate (compound (B), or a pharmaceutically acceptable salt thereof) can be formed via metabolization by cellular enzymes.

[2] = system: RSV-A Memphis 37b challenge virus; test: human RSV challenge model (viral load in nasal washes by plaque assay and PCR); assay type: in vivo
Protocol: Healthy adults received one of the following dosing regimens or placebo over 5 days using the human RSV challenge model.
Subjects were given an intranasal inoculation of RSV-A Memphis 37b challenge virus. Administration of compound (A), or a pharmaceutically acceptable salt thereof, began approximately 12 hours after confirmation of RSV infection as determined by the presence of RSV RNA in nasopharyngeal washes. The test compound was administered as an oral-liquid suspension, wherein the drug vehicle was methyl cellulose and sterile water. The placebo was the drug vehicle without the test compound. Second dosages were started 12 hours after administration of the first dosage, and the remaining second dosages were provided in approximate 12 hour intervals. Nasal washes were collected twice daily approximately 36 to 48 hours after RSV inoculation until Day 12. Viral load was detected and quantified from the aliquots of the nasal wash samples using tissue infectivity plaque assays and PCR. (See DeVincenzo, J. P., et al., Am. J. Respir. Crit. Care. Med. (2010) 182(10):1305-1314) Subjects returned for two follow-up visits on Day 16 (±2 days) and Day 28 (±2 days) post-challenge inoculation.

Row | half-life [1] | discontinuation of treatment during the study ([2]; healthy adults, 5 days dosing) | SMILES | RSV RNA ([2]; Day 12, all treated subjects) | RSV RNA ([2]; Day 16 follow-up) | RSV RNA ([2]; Day 28 follow-up) | RSV viral load compared to the placebo ([2]; all regimens (750/150 mg, 750/500 mg, 375 mg), oral, 5 days, healthy adults, nasal wash, FIG. 1) | clinically significant laboratory abnormalities ([2]; healthy adults, 5 days dosing) | reduction of plaque forming units equivalents (PFUe/mL) ([2]; subjects who received 750 mg on Day 1, within the first 24 hours)
1 | ~17.6 h |  | Nc1ccn([C@@H]2O[C@](CCl)(COP(=O)(O)OP(=O)(O)OP(=O)(O)O)[C@@H](O)[C@H]2F)c(=O)n1 [Compound (B)] |  |  |  |  |  | 
2 |  | no subject discontinued treatment | CC(C)C(=O)OC[C@@]1(CCl)O[C@@H](n2ccc(N)nc2=O)[C@H](F)[C@@H]1OC(=O)C(C)C [Compound (A)] | undetectable | undetectable | undetectable | marked reduction in RSV viral load | no clinically significant laboratory abnormalities were observed | multi-log reduction
